Results as given in ChEMBL document CHEMBL1201862, “PubChem BioAssay data set” (2004).
Active and inactive are the calls of the source.

How the values were obtained:
[1] = viability of HCT116 lacking mutant beta-catenin – cell-based, human colon tumor, dose response (AID 1045); format: functional;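 note: HCT116 colon tumor cells with beta catenin knocked out; cells exposed to compound for 60 hours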
[2] = viability of PTEN-deleted HCT116 cells – cell-based, HCT116 PTEN knockout, dose response (AID 1047); format: functional;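 note: HCT116 colon tumor cells with PTEN knocked out; cells exposed to compound for 60 hours before readout; potency for loss of cell viability measured by luminescence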
Large T antigen = Large T antigen (Simian virus 40, UniProt P03070); format: functional, Betapolyomavirus macacae;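 note: Confirmatory-stage PubChem screen for compounds that inhibit SV40 T antigen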
[3] = viability of uninfected HEp-2 cells – cell-based, HTS, cytotoxicity control for RSV inhibitor project, dose response (AID 2410); format: functional; conditions: human respiratory syncytial virus
[4] = target: T1, Calpain-2 catalytic subunit (Sus scrofa, UniProt P43367); experiment: m-calpain protease blockers, concentration series – biochemical, fluorogenic peptide substrate, dose response (AID 1420); format: functional
T1 sequence (P43367 whole entry): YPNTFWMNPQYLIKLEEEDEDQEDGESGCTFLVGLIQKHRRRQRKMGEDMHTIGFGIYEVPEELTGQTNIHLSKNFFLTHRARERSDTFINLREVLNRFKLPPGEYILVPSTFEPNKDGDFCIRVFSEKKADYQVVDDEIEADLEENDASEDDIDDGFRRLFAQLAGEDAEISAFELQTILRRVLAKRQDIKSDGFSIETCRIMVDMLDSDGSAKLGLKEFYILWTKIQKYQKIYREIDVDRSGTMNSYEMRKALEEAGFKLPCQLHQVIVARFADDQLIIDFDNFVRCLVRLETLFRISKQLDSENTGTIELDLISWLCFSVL

[5] = fluconazole-exposed Candida albicans growth modulators – fluorescence, retest, confirmation (AID 2467); format: functional, cell-based
[6] = NIH-3T3 fibroblast cytotoxicity, dose response, cytotoxicity control, cell-based, fluorescence, Alamar Blue, secondary assay (AID 2327); format: functional;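 note: NIH-3T3 mouse fibroblasts cultured with fluconazole at 8 µg/mL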
[7] = target: T2, Carboxy-terminal domain RNA polymerase II polypeptide A small phosphatase 1 (Homo sapiens, UniProt Q9GZU7); experiment: CTDSP1 inhibitors, concentration-response, biochemical, absorbance readout, ultra-high-throughput screen actives (AID 540297); format: functional
T2 sequence (Q9GZU7 whole entry): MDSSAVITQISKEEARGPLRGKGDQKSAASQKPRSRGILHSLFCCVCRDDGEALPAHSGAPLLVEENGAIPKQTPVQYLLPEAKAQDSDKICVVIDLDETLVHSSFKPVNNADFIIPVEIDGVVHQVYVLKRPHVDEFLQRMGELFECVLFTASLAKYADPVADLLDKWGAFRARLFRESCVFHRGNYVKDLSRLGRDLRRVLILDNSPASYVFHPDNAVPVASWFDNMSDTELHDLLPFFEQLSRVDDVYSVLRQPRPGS

[8] = target: T3, Zinc finger protein mex-5 (Caenorhabditis elegans, UniProt Q9XUB2); experiment: potency of MEX-5 RNA-binding blockers – biochemical, C. elegans, fluorescence polarization, dose response (AID 1960)
T3 sequence (Q9XUB2 whole entry): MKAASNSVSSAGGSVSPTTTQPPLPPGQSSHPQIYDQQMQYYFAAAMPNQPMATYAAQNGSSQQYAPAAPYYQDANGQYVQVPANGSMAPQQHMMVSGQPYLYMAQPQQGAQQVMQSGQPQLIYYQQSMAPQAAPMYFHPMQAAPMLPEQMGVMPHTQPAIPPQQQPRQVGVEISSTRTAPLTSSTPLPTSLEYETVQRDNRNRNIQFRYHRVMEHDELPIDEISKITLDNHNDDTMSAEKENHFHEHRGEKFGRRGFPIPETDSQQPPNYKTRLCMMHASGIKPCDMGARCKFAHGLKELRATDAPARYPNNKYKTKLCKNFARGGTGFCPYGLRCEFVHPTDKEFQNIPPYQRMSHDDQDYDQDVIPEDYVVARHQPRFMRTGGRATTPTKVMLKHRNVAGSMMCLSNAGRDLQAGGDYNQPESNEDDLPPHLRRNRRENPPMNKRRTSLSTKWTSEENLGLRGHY

[9] = target: T4, RNA-binding protein pos-1 (Caenorhabditis elegans, UniProt G5EF15); experiment: disruptors of C. elegans POS-1 RNA interaction – biochemical, fluorescence polarization, dose response (AID 1964);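 note: purified POS-1 fused to maltose binding protein made in E. coli; potency of compounds blocking POS-1 binding to fluorescent RNA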
T4 sequence (G5EF15 whole entry): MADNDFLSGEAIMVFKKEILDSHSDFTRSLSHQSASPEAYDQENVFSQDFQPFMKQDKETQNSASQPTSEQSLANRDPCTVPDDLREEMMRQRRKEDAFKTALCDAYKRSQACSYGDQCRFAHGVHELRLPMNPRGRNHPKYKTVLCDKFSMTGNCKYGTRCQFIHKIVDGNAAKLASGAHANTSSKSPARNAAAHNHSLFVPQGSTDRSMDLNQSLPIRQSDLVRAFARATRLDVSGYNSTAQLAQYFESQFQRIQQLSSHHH

H4 = experiment: Luminescence Cell-Based Dose Response HTS to Identify Activators of 5'UTR Stem-Loop Driven Prion Protein mRNA Translation in H4 Neuroglioblastoma Cells. [Related pubchem assays: 1829 (Project Summary), 1814 (Primary HTS)]; format: functional; conditions: Homo sapiens
[10] = Luminescence Cell-Based Dose Response HTS to Identify Activators of Luciferase Translation or Activity in H4 […] Cells. [Related pubchem assays: 1829 (Project Summary), 1814 (Primary HTS)]; format: functional
Protein skinhead-1 = target: T5, Protein skinhead-1 (Caenorhabditis elegans, UniProt P34707); format: functional
T5 sequence (P34707 whole entry): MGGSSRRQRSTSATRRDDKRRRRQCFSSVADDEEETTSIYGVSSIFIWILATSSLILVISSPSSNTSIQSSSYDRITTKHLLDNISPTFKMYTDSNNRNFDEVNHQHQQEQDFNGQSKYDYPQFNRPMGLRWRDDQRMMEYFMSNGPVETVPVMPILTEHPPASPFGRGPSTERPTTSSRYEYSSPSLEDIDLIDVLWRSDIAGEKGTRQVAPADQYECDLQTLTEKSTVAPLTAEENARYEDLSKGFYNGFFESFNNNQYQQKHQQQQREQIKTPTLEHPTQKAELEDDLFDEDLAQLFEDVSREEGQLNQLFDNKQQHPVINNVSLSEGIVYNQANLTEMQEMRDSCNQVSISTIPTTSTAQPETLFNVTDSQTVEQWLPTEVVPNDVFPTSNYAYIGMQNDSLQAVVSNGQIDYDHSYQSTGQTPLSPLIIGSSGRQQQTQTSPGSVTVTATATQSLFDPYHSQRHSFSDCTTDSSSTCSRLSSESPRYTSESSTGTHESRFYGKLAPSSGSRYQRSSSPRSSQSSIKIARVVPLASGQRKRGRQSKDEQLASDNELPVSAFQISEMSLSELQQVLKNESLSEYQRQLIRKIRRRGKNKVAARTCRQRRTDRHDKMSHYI

cells = format: functional
[11] = intracellular Trypanosoma cruzi inhibitors in host cells – cell-based, plate reader, cherry-pick samples, set 3, dose response (AID 651818); format: functional;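 note: compounds incubated with infected cells for about four days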
Paired box protein Pax-8 = Paired box protein Pax-8 (Homo sapiens, UniProt Q06710); experiment: PAX8 transcriptional activity inhibition in RMG-I – RMG-I cells, luciferase, cherry-pick, dose response (AID 687027); format: functional, cell-based;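 note: luciferase reporter driven by Pax8 target thyroperoxidase promoter measured by SteadyGlo luminescence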
Chain of Paired box protein Pax-8 (Q06710 whole entry): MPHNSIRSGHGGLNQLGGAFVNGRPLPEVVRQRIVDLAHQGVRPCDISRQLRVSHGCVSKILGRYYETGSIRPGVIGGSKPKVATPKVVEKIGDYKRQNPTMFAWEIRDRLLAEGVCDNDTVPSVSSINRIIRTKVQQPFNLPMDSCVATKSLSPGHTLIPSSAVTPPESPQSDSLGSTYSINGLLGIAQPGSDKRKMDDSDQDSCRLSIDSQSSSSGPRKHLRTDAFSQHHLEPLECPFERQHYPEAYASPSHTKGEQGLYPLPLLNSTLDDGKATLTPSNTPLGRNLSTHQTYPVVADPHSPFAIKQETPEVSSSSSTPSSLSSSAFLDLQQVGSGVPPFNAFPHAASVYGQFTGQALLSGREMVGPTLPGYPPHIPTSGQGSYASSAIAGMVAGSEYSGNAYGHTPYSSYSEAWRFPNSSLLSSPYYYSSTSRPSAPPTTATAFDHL

Chain of Large T antigen (P03070 whole entry): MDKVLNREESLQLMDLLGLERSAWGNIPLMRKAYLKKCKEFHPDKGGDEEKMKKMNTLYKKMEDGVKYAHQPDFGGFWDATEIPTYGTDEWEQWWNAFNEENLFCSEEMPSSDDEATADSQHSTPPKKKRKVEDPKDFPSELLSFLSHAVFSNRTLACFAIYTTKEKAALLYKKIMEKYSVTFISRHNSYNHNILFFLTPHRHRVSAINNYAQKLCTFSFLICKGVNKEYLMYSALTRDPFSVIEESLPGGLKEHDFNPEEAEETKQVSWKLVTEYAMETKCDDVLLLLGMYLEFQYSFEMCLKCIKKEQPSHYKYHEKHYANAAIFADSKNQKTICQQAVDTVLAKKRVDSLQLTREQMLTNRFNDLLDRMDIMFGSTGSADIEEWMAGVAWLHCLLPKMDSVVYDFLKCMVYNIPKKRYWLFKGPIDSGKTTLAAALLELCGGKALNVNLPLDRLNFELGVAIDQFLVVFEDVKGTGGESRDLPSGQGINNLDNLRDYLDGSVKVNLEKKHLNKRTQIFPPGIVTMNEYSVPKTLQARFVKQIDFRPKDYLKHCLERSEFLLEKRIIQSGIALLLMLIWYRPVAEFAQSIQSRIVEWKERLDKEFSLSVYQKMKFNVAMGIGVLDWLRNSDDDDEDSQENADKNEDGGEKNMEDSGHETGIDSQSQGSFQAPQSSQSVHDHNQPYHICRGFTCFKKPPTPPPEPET

COc1cccc(C(=O)Oc2ccccc2/C=C\C(=O)c2cc3ccccc3o2)c1
EC50 [1]: 6.66 µM (active) | EC50 [2]: 7.8 µM (active)

CNC(=O)Oc1ccc2ncccc2c1
IC50 (Large T antigen): > 100 µM (active)

COC(=O)C1=C(C)N(c2ccc(F)c(Cl)c2)C(=O)C1
EC50 [1]: 206 µM (active)

CCC(C)c1ccc(NC(=O)Nc2cccnc2)cc1 (configuration not stated)
CC50 [3]: 22.7 µM (active)

CCOC(=O)N1CCN(c2ccc([N+](=O)[O-])cc2)CC1
IC50 [4]: 30.7 µM (not active) | CC50 [3]: 26 µM (active)

Oc1[nH]c2c(Cl)cc(Cl)cc2c1N=NC(S)=NCC1CCCO1 (configuration not stated)
EC50 [1]: 1.22 µM (active) | EC50 [5]: 3.03 µM (active) | EC50 [6]: 19.8 µM (inconclusive) | EC50 [2]: 1.67 µM (active)

C[n+]1cnc(-c2ccccc2)cc1-c1ccccc1
IC50 [7]: 3.35 µM (active)

Oc1[nH]c(S)nc2nc(S)nc1-2
EC50 [8]: 8.3 µM (active) | IC50 (Large T antigen): 27.2 µM (active) | EC50 [9]: 32 µM (active)

CCOc1nc(-c2ccc(OC)cc2)ccc1-c1noc(-c2cc(OC)c(OC)c(OC)c2)n1
EC50 [1]: 25.5 µM (active) | EC50 [2]: 21.1 µM (active)

COc1cc2ccccc2cc1C(=O)Nc1nccs1
EC50 (H4): 22.8 µM (active) | EC50 [10]: 59.4 µM (active) | IC50 (Protein skinhead-1): 5.97 µM (active)

CCCCC(=O)Nc1cccc(-c2csc(-c3ccccc3)n2)c1
CC50 [3]: 23.9 µM (active)

COc1ccc2c(c1)CC/C(=C/c1ccco1)C2=O
IC50 (Protein skinhead-1): 28.9 µM (active)

C=CCn1c(=S)[nH]c2scc(-c3ccco3)c2c1=O
IC50 (Large T antigen): 24.1 µM (active)

CCOc1cc(C=O)cc(N=Nc2cccc([N+](=O)[O-])c2)c1O
EC50 [5]: 4.04 µM (active) | IC50 (cells): 7.46 µM (active) | EC50 [6]: > 150 µM (inactive)

CCC(=O)Nc1cccc(-c2nc3ccc(C)cc3o2)c1
CC50 [3]: 39.4 µM (active)

COc1ccc(Cl)cc1NC(=O)C(C)OC(=O)c1ccc(NS(=O)(=O)c2ccc3[nH]c(O)nc3c2)cc1 (configuration not stated)
CC50 [3]: 15.8 µM (active)

COc1ccc(N2C(=O)/C(=C/c3ccc([N+](=O)[O-])cc3)C=C2c2ccccc2)cc1
IC50 (Protein skinhead-1): > 100 µM (inactive)

O=S(=O)(c1ccccc1)N1CCC(c2nc(O)c3nnn(Cc4c(F)cccc4Cl)c3n2)CC1
CC50 [3]: 26 µM (active)

CCOc1ccccc1C(=O)Nc1cc2c(cc1N1CCCC1)n(CC)c(=O)n2CC
CC50 [3]: 13.5 µM (active)

O=C(COC(=O)/C=C/c1ccco1)Nc1ncc(Cl)cc1Cl
IC50 [7]: 17 µM (active)

CCCCCOc1ccccc1C(=O)NCCC(=O)O
IC50 (Protein skinhead-1): > 100 µM (inactive)

CC(=O)Oc1cc2c(C(=O)NCCCN3CCOCC3)c(C)oc2c2ccccc12
EC50 [1]: 4.45 µM (active) | EC50 [2]: 3.79 µM (active)

Fc1ccc(OCc2nc(-c3cccs3)no2)cc1
IC50 (Protein skinhead-1): 24.5 µM (active)

O=C1c2ccccc2C(=O)N1CCCCN(C(=O)c1cccc([N+](=O)[O-])c1)c1ccc(Cl)cc1
CC50 [3]: 43.7 µM (active)

C=CCNC(=O)COC(=O)c1c2c(nc3ccccc13)CCC2
IC50 [7]: 7.39 µM (active)

Nc1cc(S(=O)(=O)c2ccc(O)c(N)c2)ccc1O
IC50 (Large T antigen): 20.5 µM (active)

COc1ccc(N2C(=O)/C(=C/c3ccc(C)o3)C(=O)NC2=S)c(OC)c1
EC50 [8]: 41.3 µM (active) | IC50 (Large T antigen): 34.3 µM (active) | EC50 [9]: > 300 µM (not active)

O=C(CSc1oc(-c2ccc(F)cc2)nc1S(=O)(=O)c1ccc(F)cc1)NCC1CCCO1 (configuration not stated)
EC50 [1]: 13.6 µM (active) | EC50 [2]: 10.2 µM (active)

Cc1ccccc1-c1noc(-c2cccs2)n1
IC50 (Protein skinhead-1): 7.91 µM (active)

Cc1cccc(C(=O)OCC(=O)c2ccc(CC(=O)N3CCOCC3)s2)c1C
IC50 [7]: 6.46 µM (active)

Cc1ccc2ncnc(Nc3cccc([N+](=O)[O-])c3)c2c1
IC50 (Protein skinhead-1): > 100 µM (inactive)

CCCC(C(=O)Nc1ccc(S(=O)(=O)N2CCOCC2)cc1)c1ccccc1 (configuration not stated)
IC50 (Protein skinhead-1): > 100 µM (inactive)

CCC(C(=O)N(C(C)C)C(C)C)c1ccccc1 (configuration not stated)
IC50 (Protein skinhead-1): > 100 µM (inactive)

C[C@H](CO)N1C[C@H](C)[C@@H](CN(C)Cc2ccc(Oc3ccccc3)cc2)Oc2ccc(N(C)C)cc2C1=O
AC50 [11]: 2.27 µM (active)

C[C@H]1CN([C@@H](C)CO)C(=O)c2cccc(NC(=O)CCCCCC(=O)Nc3ccccc3N)c2O[C@@H]1CN(C)CC1CCCCC1
AC50 [11]: 1.95 µM (active)

C[C@H](CO)N1C[C@H](C)[C@H](CN(C)Cc2ccc(C(=O)Nc3ccccc3N)cc2)Oc2ccc(NS(=O)(=O)c3ccc(F)cc3)cc2CC1=O
AC50 [11]: 2.64 µM (active)

Cc1ccc(S(=O)(=O)N(C)C[C@H]2Oc3ccc(NC(=O)Nc4cccc5ccccc45)cc3CC(=O)N([C@@H](C)CO)C[C@H]2C)cc1
AC50 [11]: 4.81 µM (active)

C[C@@H]1CN([C@@H](C)CO)C(=O)c2cccc(NC(=O)c3ccncc3)c2O[C@@H]1CN(C)Cc1ccc(Cl)c(Cl)c1
AC50 [11]: 1.31 µM (active)

COc1ccc(NC(=O)Nc2ccc3c(c2)CC(=O)N([C@H](C)CO)C[C@@H](C)[C@@H](CN(C)Cc2ccc(Oc4ccccc4)cc2)O3)cc1
AC50 (Paired box protein Pax-8): 23.5 µM (active) | AC50 [11]: 2.09 µM (active)

COc1ccc(S(=O)(=O)Nc2ccc3c(c2)C(=O)N([C@H](C)CO)C[C@H](C)[C@H](CN(C)Cc2ccc(C(F)(F)F)cc2)OCCCC[C@@H](C)O3)cc1
AC50 [11]: 3.2 µM (active)

C[C@@H]1CN([C@@H](C)CO)C(=O)c2cccc(NC(=O)Nc3ccc(C(F)(F)F)cc3)c2O[C@@H]1CN(C)S(=O)(=O)c1ccc(Cl)cc1
AC50 [11]: 2.79 µM (active)

C[C@@H]1CN([C@H](C)CO)C(=O)Cc2cc(NC(=O)NC3CCCCC3)ccc2O[C@H]1CN(C)Cc1ccc(C(=O)Nc2ccccc2N)cc1
AC50 [11]: 5.26 µM (active)

C[C@@H]1CCCCO[C@H](CN(C)Cc2ccc(C(F)(F)F)cc2)[C@@H](C)CN([C@H](C)CO)C(=O)c2cc(NC(=O)Nc3ccc(C(F)(F)F)cc3)ccc2O1
AC50 [11]: 3.15 µM (active)

O=C(C/C=N\OCc1ccc([N+](=O)[O-])cc1)Nc1ccccc1
IC50 (cells): 16.1 µM (active)

O=C(Cc1nnc(NC(=O)c2ccccc2)s1)N/N=C/c1ccc(O)cc1
IC50 [7]: 8.5 µM (active)
